Molecular target: T1, CFTR (Homo sapiens, UniProt P13569, DEL508-508)
T1 construct: Primary CF airway epithelial cells were obtained from the UNC Cystic Fibrosis Tissue Procurement and Cell Culture Core; host or cells: primary CF airway epithelial cells, differentiated at the air-liquid interface
Test: Equivalent current assay in primary CF airway epithelial cells (NAUC, combination with 1st site corrector FDL169 or VX-809)
Type: cell-based
Details: 37° C., 24 h

[1] = test compound 1 μM in combination with 1st site corrector FDL169 (3 μM)
[2] = test compound 3 μM in combination with 1st site corrector FDL169 (3 μM)
[3] = test compound 10 μM in combination with 1st site corrector FDL169 (3 μM)

T1 sequence (P13569 with tags, fused parts or gaps DEL508-508): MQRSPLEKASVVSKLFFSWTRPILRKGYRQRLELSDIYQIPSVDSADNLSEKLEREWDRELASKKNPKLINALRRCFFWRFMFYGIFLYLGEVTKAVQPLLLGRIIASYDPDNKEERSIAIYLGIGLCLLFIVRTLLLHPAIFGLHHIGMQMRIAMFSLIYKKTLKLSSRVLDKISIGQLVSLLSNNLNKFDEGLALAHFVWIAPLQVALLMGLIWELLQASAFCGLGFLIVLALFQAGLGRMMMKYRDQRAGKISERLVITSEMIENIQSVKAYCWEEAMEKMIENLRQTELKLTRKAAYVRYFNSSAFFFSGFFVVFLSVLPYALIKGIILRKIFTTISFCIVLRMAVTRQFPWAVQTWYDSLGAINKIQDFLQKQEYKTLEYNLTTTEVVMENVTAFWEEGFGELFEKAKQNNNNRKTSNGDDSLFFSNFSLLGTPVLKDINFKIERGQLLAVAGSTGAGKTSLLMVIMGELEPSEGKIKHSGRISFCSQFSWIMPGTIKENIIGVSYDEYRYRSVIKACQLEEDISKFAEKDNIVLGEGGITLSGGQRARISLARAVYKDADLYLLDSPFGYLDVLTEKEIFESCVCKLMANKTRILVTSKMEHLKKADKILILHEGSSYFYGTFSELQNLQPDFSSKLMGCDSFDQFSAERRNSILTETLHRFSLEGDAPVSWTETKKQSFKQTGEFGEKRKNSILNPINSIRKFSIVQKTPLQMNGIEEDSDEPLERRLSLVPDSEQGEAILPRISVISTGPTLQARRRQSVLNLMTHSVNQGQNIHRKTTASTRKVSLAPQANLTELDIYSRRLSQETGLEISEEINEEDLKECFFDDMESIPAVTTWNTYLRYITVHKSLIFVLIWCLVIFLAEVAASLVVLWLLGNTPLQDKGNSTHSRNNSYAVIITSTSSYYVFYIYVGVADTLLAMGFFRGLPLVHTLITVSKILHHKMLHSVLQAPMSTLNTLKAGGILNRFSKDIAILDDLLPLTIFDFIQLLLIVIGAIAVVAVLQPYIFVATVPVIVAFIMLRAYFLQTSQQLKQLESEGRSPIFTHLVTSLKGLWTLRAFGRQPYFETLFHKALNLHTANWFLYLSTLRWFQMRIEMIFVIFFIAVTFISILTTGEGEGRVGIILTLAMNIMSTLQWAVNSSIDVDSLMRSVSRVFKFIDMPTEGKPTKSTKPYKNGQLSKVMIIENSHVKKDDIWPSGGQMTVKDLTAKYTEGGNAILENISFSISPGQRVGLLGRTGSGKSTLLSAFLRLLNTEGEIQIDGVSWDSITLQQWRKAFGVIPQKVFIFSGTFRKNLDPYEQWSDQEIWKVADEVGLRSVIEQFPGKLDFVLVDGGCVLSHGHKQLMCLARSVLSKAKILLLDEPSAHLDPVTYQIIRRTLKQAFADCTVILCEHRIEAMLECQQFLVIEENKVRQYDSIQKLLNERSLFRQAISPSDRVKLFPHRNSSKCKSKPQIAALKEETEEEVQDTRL

Row | SMILES | Nauc @ 1 μM [1] | Nauc @ 3 μM [2] | Nauc @ 10 μM [3] | Nauc @ 1 μM (test compound 1 μM in combination with 1st site corrector VX-809 (3 μM)) | Nauc @ 3 μM (test compound 3 μM in combination with 1st site corrector VX-809 (3 μM)) | Nauc @ 10 μM (test compound 10 μM in combination with 1st site corrector VX-809 (3 μM))
1 | CN(C(=O)[C@H]1[C@H]2CC(F)(F)CN2[C@]2(C(=O)Nc3c(Cl)cc(Cl)cc32)[C@H]1C(=O)O)c1cccc(C(F)(F)F)c1 [Example 157] | ++ (NAUC “++” refers to an observed NAUC 170-140% of positive control) | ++ (NAUC “++” refers to an observed NAUC 170-140% of positive control) | – | – | – | –
2 | O=C(O)[C@H]1[C@@H](C(=O)N(c2cc(Cl)cc(Cl)c2)C2CC(O)C2)[C@H]2CC(F)(F)CN2[C@]12C(=O)Nc1c(Cl)cc(Cl)cc12 (stereo partly shown) [Example 158] | + (NAUC “+” refers to an observed NAUC <140% of positive control) | + (NAUC “+” refers to an observed NAUC <140% of positive control) | – | – | – | –
3 | O=C(O)[C@H]1[C@@H](C(=O)N(c2cc(Cl)cc(Cl)c2)C2CC(O)C2)[C@H]2CC(F)(F)CN2[C@]12C(=O)Nc1c(Cl)cc(Cl)cc12 (stereo partly shown) [Example 159] | + (NAUC “+” refers to an observed NAUC <140% of positive control) | + (NAUC “+” refers to an observed NAUC <140% of positive control) | – | – | – | –
4 | CN(C)CCN(C(=O)[C@H]1[C@H]2CC(F)(F)CN2[C@]2(C(=O)Nc3c(Cl)cc(Cl)cc32)[C@H]1C(=O)O)c1cc(Cl)cc(Cl)c1 [Example 160] | + (NAUC “+” refers to an observed NAUC <140% of positive control) | + (NAUC “+” refers to an observed NAUC <140% of positive control) | – | – | – | –
5 | CN(C(=O)[C@H]1[C@H]2CC(F)(F)CN2[C@]2(C(=O)Nc3c(Cl)cc(Cl)cc32)[C@H]1C(=O)O)c1cccc(-c2ccccc2)c1 [Example 161] | ++ (NAUC “++” refers to an observed NAUC 170-140% of positive control) | +++ (NAUC “+++” refers to an observed NAUC>170% of positive control) | ++ (NAUC “++” refers to an observed NAUC 170-140% of positive control) | – | – | –
6 | CN(C(=O)[C@H]1[C@H]2CC(F)(F)CN2[C@]2(C(=O)Nc3c(Cl)cc(Cl)cc32)[C@H]1C(=O)O)c1ccccc1-c1ccccc1 [Example 162] | +++ (NAUC “+++” refers to an observed NAUC>170% of positive control) | +++ (NAUC “+++” refers to an observed NAUC>170% of positive control) | +++ (NAUC “+++” refers to an observed NAUC>170% of positive control) | – | – | –
7 | O=C(O)[C@H]1[C@@H](C(=O)N(CC2CC2)c2cccc(C(F)(F)F)c2)[C@H]2CC(F)(F)CN2[C@]12C(=O)Nc1c(Cl)cc(Cl)cc12 [Example 163] | +++ (NAUC “+++” refers to an observed NAUC>170% of positive control) | +++ (NAUC “+++” refers to an observed NAUC>170% of positive control) | ++ (NAUC “++” refers to an observed NAUC 170-140% of positive control) | – | – | –
8 | O=C(O)[C@H]1[C@@H](C(=O)N(CC2CC2)c2cccc(CC(F)(F)F)c2)[C@H]2CC(F)(F)CN2[C@]12C(=O)Nc1c(Cl)cc(Cl)cc12 [Example 164] | +++ (NAUC “+++” refers to an observed NAUC>170% of positive control) | +++ (NAUC “+++” refers to an observed NAUC>170% of positive control) | +++ (NAUC “+++” refers to an observed NAUC>170% of positive control) | – | – | –
9 | Cc1nn(C)cc1N(CC1CC1)C(=O)[C@H]1[C@H]2CC(F)(F)CN2[C@]2(C(=O)Nc3c(Cl)cc(Cl)cc32)[C@H]1C(=O)O [Example 165] | + (NAUC “+” refers to an observed NAUC <140% of positive control) | + (NAUC “+” refers to an observed NAUC <140% of positive control) | – | – | – | –
10 | Cn1cc(N(CC2CC2)C(=O)[C@H]2[C@H]3CC(F)(F)CN3[C@]3(C(=O)Nc4c(Cl)cc(Cl)cc43)[C@H]2C(=O)O)c(C(F)(F)F)n1 [Example 166] | + (NAUC “+” refers to an observed NAUC <140% of positive control) | + (NAUC “+” refers to an observed NAUC <140% of positive control) | – | – | – | –
11 | Cc1nn(-c2ccccc2)cc1N(CC1CC1)C(=O)[C@H]1[C@H]2CC(F)(F)CN2[C@]2(C(=O)Nc3c(Cl)cc(Cl)cc32)[C@H]1C(=O)O [Example 167] | + (NAUC “+” refers to an observed NAUC <140% of positive control) | + (NAUC “+” refers to an observed NAUC <140% of positive control) | – | – | – | –
12 | Cn1cc(N(CC2CC2)C(=O)[C@H]2[C@H]3CC(F)(F)CN3[C@]3(C(=O)Nc4c(Cl)cc(Cl)cc43)[C@H]2C(=O)O)c(C#N)n1 [Example 168] | + (NAUC “+” refers to an observed NAUC <140% of positive control) | + (NAUC “+” refers to an observed NAUC <140% of positive control) | – | – | – | –
13 | CN(C(=O)[C@H]1[C@H]2CC(F)(F)CN2[C@]2(C(=O)Nc3c(Cl)cc(Cl)cc32)[C@H]1C(=O)O)c1cc(Cl)cc(Cl)c1 [Example 169] | ++ (NAUC “++” refers to an observed NAUC 170-140% of positive control) | +++ (NAUC “+++” refers to an observed NAUC>170% of positive control) | +++ (NAUC “+++” refers to an observed NAUC>170% of positive control) | – | – | –
14 | CN(CC(C)(C)c1cccc(C(C)(C)C)c1)C(=O)[C@H]1[C@H]2CC(F)(F)CN2[C@]2(C(=O)Nc3c(Cl)cc(Cl)cc32)[C@H]1C(=O)O [Example 170] | – | – | – | +++ (NAUC “+++” refers to an observed NAUC>170% of positive control) | + (NAUC “+” refers to an observed NAUC <140% of positive control) | + (NAUC “+” refers to an observed NAUC <140% of positive control)
15 | CCN(C(=O)[C@H]1[C@H]2CC(F)(F)CN2[C@]2(C(=O)Nc3c(Cl)cc(Cl)cc32)[C@H]1C(=O)O)c1cc(Cl)cc(Cl)c1 [Example 171] | +++ (NAUC “+++” refers to an observed NAUC>170% of positive control) | +++ (NAUC “+++” refers to an observed NAUC>170% of positive control) | +++ (NAUC “+++” refers to an observed NAUC>170% of positive control) | – | – | –
16 | CCCN(C(=O)[C@H]1[C@H]2CC(F)(F)CN2[C@]2(C(=O)Nc3c(Cl)cc(Cl)cc32)[C@H]1C(=O)O)c1cc(Cl)cc(Cl)c1 [Example 172] | +++ (NAUC “+++” refers to an observed NAUC>170% of positive control) | +++ (NAUC “+++” refers to an observed NAUC>170% of positive control) | +++ (NAUC “+++” refers to an observed NAUC>170% of positive control) | – | – | –
17 | O=C(O)[C@H]1[C@@H](C(=O)N(CC2CC2)c2cc(Cl)cc(Cl)c2)[C@H]2CC(F)(F)CN2[C@]12C(=O)Nc1c(Cl)cc(Cl)cc12 [Example 173] | +++ (NAUC “+++” refers to an observed NAUC>170% of positive control) | +++ (NAUC “+++” refers to an observed NAUC>170% of positive control) | + (NAUC “+” refers to an observed NAUC <140% of positive control) | – | – | –
18 | CC(C)N(C(=O)[C@H]1[C@H]2CC(F)(F)CN2[C@]2(C(=O)Nc3c(Cl)cc(Cl)cc32)[C@H]1C(=O)O)c1cc(Cl)cc(Cl)c1 [Example 174] | +++ (NAUC “+++” refers to an observed NAUC>170% of positive control) | +++ (NAUC “+++” refers to an observed NAUC>170% of positive control) | +++ (NAUC “+++” refers to an observed NAUC>170% of positive control) | – | – | –
